Experimental data taken from BindingDB's records for doi:10.1124/mol.53.2.195 (Suntory Institute For Bioorganic Research, 1998).

How the values were obtained:
[1] = target: Glutamate receptor ionotropic, NMDA 1 (Rattus norvegicus, UniProt P35439)
Glutamate receptor 3 = Glutamate receptor 3 (Rattus norvegicus, UniProt P19492)
[2] = target: Glutamate receptor ionotropic, kainate 1 (Rattus norvegicus, UniProt P22756)
Sequence of Glutamate receptor ionotropic, kainate 1 (P22756 whole entry): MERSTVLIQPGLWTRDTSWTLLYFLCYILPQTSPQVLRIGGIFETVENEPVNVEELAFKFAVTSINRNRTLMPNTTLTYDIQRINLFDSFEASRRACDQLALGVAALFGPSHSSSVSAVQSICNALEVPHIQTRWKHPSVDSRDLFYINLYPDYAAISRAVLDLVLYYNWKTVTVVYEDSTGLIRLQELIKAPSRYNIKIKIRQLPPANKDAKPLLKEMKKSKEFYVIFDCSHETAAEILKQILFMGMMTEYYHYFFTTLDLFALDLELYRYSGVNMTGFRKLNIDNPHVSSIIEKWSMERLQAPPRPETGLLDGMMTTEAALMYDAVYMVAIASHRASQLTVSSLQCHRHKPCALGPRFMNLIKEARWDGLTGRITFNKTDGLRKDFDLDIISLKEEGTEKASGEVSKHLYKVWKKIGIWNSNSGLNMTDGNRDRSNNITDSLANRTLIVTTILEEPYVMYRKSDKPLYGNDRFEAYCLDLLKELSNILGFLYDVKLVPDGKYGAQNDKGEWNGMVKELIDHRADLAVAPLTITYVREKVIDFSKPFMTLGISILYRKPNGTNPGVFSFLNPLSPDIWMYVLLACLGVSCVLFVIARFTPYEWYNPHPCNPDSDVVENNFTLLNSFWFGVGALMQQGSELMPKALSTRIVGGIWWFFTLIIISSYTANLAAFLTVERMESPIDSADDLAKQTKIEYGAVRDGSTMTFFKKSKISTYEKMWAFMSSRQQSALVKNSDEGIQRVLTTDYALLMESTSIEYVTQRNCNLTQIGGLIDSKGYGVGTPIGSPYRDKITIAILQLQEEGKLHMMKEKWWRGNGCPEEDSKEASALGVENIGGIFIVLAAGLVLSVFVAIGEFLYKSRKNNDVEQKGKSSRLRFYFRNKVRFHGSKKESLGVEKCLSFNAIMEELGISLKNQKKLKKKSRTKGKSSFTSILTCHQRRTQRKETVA

Sequence of Glutamate receptor 3 (P19492 whole entry): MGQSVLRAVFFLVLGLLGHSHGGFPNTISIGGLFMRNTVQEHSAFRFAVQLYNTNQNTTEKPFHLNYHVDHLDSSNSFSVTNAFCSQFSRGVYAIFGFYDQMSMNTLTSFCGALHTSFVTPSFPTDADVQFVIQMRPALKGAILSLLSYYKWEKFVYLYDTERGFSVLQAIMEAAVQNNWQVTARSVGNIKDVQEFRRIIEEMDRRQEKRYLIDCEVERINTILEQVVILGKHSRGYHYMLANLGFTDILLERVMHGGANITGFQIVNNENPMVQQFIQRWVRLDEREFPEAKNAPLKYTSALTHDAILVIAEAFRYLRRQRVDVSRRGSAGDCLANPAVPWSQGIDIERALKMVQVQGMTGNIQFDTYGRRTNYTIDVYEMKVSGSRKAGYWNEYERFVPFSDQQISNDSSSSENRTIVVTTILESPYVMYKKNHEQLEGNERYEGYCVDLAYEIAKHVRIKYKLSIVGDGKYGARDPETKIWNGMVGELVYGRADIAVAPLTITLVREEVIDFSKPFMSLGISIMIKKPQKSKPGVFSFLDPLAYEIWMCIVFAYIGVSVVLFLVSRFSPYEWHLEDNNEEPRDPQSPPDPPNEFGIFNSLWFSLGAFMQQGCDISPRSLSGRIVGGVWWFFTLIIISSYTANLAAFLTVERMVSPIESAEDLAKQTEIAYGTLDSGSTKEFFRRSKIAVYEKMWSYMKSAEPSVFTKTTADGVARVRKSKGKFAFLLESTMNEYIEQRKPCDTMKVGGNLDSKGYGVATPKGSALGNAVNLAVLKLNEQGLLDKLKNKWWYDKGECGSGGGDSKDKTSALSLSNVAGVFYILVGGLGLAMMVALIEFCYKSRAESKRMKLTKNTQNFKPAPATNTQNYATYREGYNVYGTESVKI

Structure (SMILES)	Ki [1] [µM]	Ki (Glutamate receptor 3) [µM]	Ki [2] [µM]
N[C@H](C(=O)O)[C@H]1C[C@H]1C(=O)O [L-CCG-IV]	0.008	–	–
CC(C)[C@H]1CN[C@H](C(=O)O)[C@H]1CC(=O)O [dihydrokainic acid]	> 10	> 10	6
N[C@H](C(=O)O)[C@H](OC(=O)c1ccccc1)C(=O)O (racemic) [DL-TBzOAsp]	> 10	> 10	> 10
O=C(O)[C@H]1CN[C@H](C(=O)O)C1 [t-PDC]	> 10	> 10	> 10
N[C@H](C(=O)O)[C@H](O)C(=O)O (racemic) [DL-THA]	> 10	> 10	> 10
CN[C@H](CC(=O)O)C(=O)O [NMDA]	5.5	–	–
N[C@H](C(=O)O)[C@H](OCc1ccccc1)C(=O)O [DL-TBOA]	> 10	> 10	> 10
